According to patent publication US7754722B2, “Piperazine derivatives and methods of use” (Merck Serono SA, priority 2002, dated 2010):

Molecular target: T1, FSH receptor (Homo sapiens, UniProt P23945)
T1 construct: expressed in transfected cells; host or cells: CHO (Chinese Hamster Ovary) cells, stably transfected, carrying a cAMP response element-luciferase reporter
T1 sequence (P23945 18-695): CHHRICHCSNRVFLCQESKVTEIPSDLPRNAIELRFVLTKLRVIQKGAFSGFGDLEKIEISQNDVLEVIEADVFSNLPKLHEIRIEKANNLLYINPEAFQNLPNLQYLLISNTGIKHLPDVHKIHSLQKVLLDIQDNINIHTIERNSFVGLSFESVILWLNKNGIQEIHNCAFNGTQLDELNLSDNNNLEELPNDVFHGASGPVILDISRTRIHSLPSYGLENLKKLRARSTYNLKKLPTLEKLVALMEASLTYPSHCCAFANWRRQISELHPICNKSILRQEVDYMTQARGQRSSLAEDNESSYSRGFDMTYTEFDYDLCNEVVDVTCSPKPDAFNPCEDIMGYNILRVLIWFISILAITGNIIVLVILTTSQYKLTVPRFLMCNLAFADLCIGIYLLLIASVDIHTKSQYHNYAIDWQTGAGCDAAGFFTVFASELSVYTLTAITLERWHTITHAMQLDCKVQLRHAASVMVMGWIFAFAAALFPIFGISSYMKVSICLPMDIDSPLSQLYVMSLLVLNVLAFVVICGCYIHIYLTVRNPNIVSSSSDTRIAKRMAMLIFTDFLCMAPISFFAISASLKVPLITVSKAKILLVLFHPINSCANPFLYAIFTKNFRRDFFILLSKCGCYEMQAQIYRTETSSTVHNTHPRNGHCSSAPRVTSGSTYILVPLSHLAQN
Assay: FSH assay: cAMP response element luciferase reporter in CHO cells expressing recombinant FSH receptor
Type: cell-based
Settings: agonist activity; CHO cells stably transfected with recombinant FSH receptor; luciferase luminescence; log-dose-response curves; incubation 37° C. for 3 hrs 30 min; read-out: ED50 (the source's name)
Method: Compounds of the invention were tested in the following assay.
All compounds of the invention were stored in 96-well deepwell plates in DMSO at a nominal concentration of 10 μM. Compounds of the invention were screened for agonist activity at the FSH receptor using the recombinant FSH receptor stably transfected and expressed in Chinese Hamster Ovary Cells (CHO cells) essentially as described in the work by Kelton, et al. Molecular and Cellular Endocrinology, 1992, 89, 141-151). […] Thus an agonist at the FSH receptor increases cAMP in the cell which results in activation of the CREB (cAMP) response element binding protein). The substrate for the enzyme (Packard Instrument Company 800 Research Parkway, Meriden, Conn. 06450, USA) was added to the cells after appropriate incubation with the compounds or FSH and the amount of luciferase expressed was measured by quantitating the luminescence produced by the enzyme using a TopCount scintillation/luminescence counter running in single photon counting mode. A compound which acts as an agonist at the receptor should produce light from the treated cells in proportion to its concentration within the incubation. Luminescence should be saturable at high concentrations of the compound.
The compounds of the invention, in deepwell plates (Master plates) as indicated above were loaded on the robotic deck along with the appropriate number of assay plates and daughter plates. A 10 μl aliquot from each master plate was transferred to the corresponding daughter plate and 90 μl of DME/F12 was added and mixed within each well. 20 μl was then removed from the daughter plate and dispensed into the assay plate. After addition of an aliquot of FSH (equivalent to an EC100 response for this hormone to each of three wells on the plate, 80 μl of media (DME/F 12±2% serum) and 100 μl aliquot of cells (4×10^5/ml in the same media) were added and the plate incubated at 37° C. for 3 hrs 30 min. At this time the plate was removed from the incubator and media in each well was aspirated and the cells adhering to the bottom of the plate washed with 300 μl PBS containing 1 mM Ca^2+ and 1 mM Mg^2+. The PBS was aspirated and 100 μl PBS added to each well. 100 μl of Lucite (prepared as described by the manufacturer) was added to each well and the plate was shaken gently for 40 seconds prior to placement in the TopCount plate reader. After allowing 3.5 minutes for the plate to dark-adapt within the machine, the amount of luminescence generated was quantitated using Single Photon Counting mode. The data was transmitted electronically from the TopCount to the robot processing computer terminal and was renamed with an ID corresponding to the original master plate ID. […] LDR (log-dose-response) curves were generated for these compounds in CHO cells containing the FSH receptor and these curves were also compared with those in either cells expressing a different Gs linked receptor or in cells lacking any transfected receptor.

Row | SMILES | EC50 [nM]
1 | CCCCCCN1CCN(S(=O)(=O)c2ccccc2F)[C@H](C(=O)Nc2ccc3c(c2)nc(-c2cccnc2)n3CC)C1 [1-(2-fluoro-benzenesulfonyl)-4-hexyl-piperazine-2-carboxylic acid (1-ethyl-2-pyridin-3-yl-1H-benzoimidazol-5-yl)amide] | 74
2 | CCCCCCN1CCN(S(=O)(=O)CCCC)[C@H](C(=O)Nc2ccc3c(c2)nc(-c2cccnc2)n3CC)C1 [1-(butane-1-sulfonyl)-4-hexyl-piperazine-2-carboxylic acid (1-ethyl-2-pyridin-3-yl-1H-benzoimidazol-5-yl)amide] | 170

Further lines, results first:

Row | EC50 [nM] | SMILES
3 | 63 | CCCCCNC(=O)N1CCN(S(=O)(=O)c2cccs2)[C@H](C(=O)Nc2ccc3c(c2)c2ccccc2n3CC)C1 [4-(thiophene-2-sulfonyl)-piperazine-1,3-dicarboxylic acid 3-[(9-ethyl-9H-carbazol-3-yl)amide]-1-pentylamide]
4 | 53 | CCCCCCCN1CCN(S(=O)(=O)c2cccs2)[C@H](C(=O)Nc2ccc3c(c2)nc(-c2ccncc2)n3CC)C1 [4-heptyl-1-(thiophene-2-sulfonyl)-piperazine-2-carboxylic acid (1-ethyl-2-pyridin-4-yl-1H-benzoimidazol-5-yl)amide]
5 | 111 | CCCCCCN1CCN(S(=O)(=O)c2cccs2)[C@H](C(=O)Nc2ccc3c(c2)nc(-c2ccncc2)n3CC)C1 [4-hexyl-1-(thiophene-2-sulfonyl)-piperazine-2-carboxylic acid (1-ethyl-2-pyridin-4-yl-1H-benzoimidazol-5-yl)amide]
6 | 150 | CCCCCCN1CCN(S(=O)(=O)c2ccccc2)[C@H](C(=O)Nc2ccc3c(c2)nc(-c2cccnc2)n3CC)C1 [1-benzenesulfonyl-4-hexyl-piperazine-2-carboxylic acid (1-ethyl-2-pyridin-3-yl-1H-benzoimidazol-5-yl)amide]
